From US9045468B2, “2,5-methano- and 2,5-ethano-tetrahydrobenzazepine derivatives and use thereof to block reuptake of norepinephrine, dopamine, and serotonin” (Albany Molecular Research, Inc., priority 2010, dated 2015)

Experiments:
SERT = experiment: Ex vivo transporter occupancy assay, SERT ([3H]citalopram, brain tissue); type: in vivo; settings: dosed orally, time until sacrifice 3 h
From the text: (§1) The general procedure for brain tissue collection and transporter occupancy assessment is briefly described as follows. Mice were sacrificed by asphyxiation in CO2, rats by decapitation and dogs by IV injection of euthanasia solution. For mice and rats, after the brains were removed from the skull, the forebrain tissue (removal of the brainstem and cerebellum) was used for SERT, NET, and DAT occupancy assessment. In dogs, the striatum was dissected for DAT occupancy and the remaining forebrain tissue (without the striatum, brainstem, and cerebellum) was used for SERT and NET occupancy assessment. The brain tissues were frozen in chilled isopentane and stored at −80° C. until homogenization.
(§2) The brain tissues were thawed and then homogenized using a polytron homogenizer (Kinematica). Sample aliquots were frozen immediately and stored at −80° C. Protein content was measured for each sample using a Coomassie protein assay kit (Pierce).
(§3) On the day of ex vivo binding for occupancy assessment, frozen sample aliquots were thawed and needle homogenized, and 100 μg of the tissue was incubated for SERT, NET, and DAT binding under assay conditions summarized in Table 1. After incubation, the reactions were terminated by the addition of ice-cold assay buffer and rapid filtration through a Brandel Cell Harvester using FPXLR-196 filters. The filters were washed twice with ice-cold incubation buffer, punched into a clear plate prior to the addition of 200 ul scintillation fluid per well. Radioligand was measured using a Wallac Microbeta liquid scintillation counter.
(§4) The specific binding was calculated by subtracting the value of the non-specific binding from that of the total binding in each sample. The percent occupancy was calculated as (1−specific binding in drug treated/specific binding in vehicle treated)×100%. […] Nonlinear regression was performed using GraphPad Prism version 3.00 (GraphPad Software, San Diego, Calif.).

hSERT = hSERT (Homo sapiens (Human), UniProt P31645); experiment: SERT radioligand binding assay ([125I]RTI-55, HEK-293 membranes); settings: recombinant HEK-293 membranes, [125I]RTI-55; read-out: Binding Affinity (IC50, nM) SERT
hNET = hNET (Homo sapiens (Human), UniProt P23975); experiment: NET radioligand binding assay ([3H]nisoxetine, HEK-293 membranes); settings: recombinant HEK-293 membranes, [3H]nisoxetine; read-out: Binding Affinity (IC50, nM) NET
NET = experiment: Ex vivo transporter occupancy assay, NET ([3H]nisoxetine, brain tissue); type: in vivo; settings: dosed orally, time until sacrifice 3 h
From the text: as §1, §2
as §3, with “After incubation, the reactions were terminated by the addition of ice-cold assay buffer and rapid filtration through a Brandel Cell Harvester using FPXLR-196 filters.” left out
as §4

DAT = experiment: Ex vivo transporter occupancy assay, DAT ([125I]RTI-55, brain tissue); type: in vivo; settings: dosed orally, time until sacrifice 3 h
From the text: as §1, §2
as §3, with “After incubation, the reactions were terminated by the addition of ice-cold assay buffer and rapid filtration through a Brandel Cell Harvester using FPXLR-196 filters.” left out
as §4

hDAT = hDAT (Homo sapiens (Human), UniProt Q01959); experiment: DAT radioligand binding assay ([125I]RTI-55, HEK-293 membranes); settings: recombinant HEK-293 membranes, [125I]RTI-55; read-out: Binding Affinity (IC50, nM) DAT
Chain of hDAT (Q01959 whole entry): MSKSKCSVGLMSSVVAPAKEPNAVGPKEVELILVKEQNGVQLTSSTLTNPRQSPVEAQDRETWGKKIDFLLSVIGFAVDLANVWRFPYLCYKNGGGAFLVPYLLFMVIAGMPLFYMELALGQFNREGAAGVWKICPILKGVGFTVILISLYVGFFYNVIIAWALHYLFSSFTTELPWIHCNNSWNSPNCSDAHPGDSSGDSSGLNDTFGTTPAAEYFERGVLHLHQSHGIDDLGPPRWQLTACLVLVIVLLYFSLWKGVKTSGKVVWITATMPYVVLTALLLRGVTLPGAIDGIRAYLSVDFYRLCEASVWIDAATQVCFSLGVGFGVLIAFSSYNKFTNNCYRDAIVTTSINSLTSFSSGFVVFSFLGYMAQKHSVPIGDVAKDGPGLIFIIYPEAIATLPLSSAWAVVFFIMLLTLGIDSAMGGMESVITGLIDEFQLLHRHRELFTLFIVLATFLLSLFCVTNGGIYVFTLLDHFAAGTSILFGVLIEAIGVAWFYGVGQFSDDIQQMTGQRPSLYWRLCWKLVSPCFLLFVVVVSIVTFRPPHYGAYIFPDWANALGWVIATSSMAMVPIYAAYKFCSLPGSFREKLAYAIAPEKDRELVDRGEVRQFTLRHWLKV

Chain of hSERT (P31645 whole entry): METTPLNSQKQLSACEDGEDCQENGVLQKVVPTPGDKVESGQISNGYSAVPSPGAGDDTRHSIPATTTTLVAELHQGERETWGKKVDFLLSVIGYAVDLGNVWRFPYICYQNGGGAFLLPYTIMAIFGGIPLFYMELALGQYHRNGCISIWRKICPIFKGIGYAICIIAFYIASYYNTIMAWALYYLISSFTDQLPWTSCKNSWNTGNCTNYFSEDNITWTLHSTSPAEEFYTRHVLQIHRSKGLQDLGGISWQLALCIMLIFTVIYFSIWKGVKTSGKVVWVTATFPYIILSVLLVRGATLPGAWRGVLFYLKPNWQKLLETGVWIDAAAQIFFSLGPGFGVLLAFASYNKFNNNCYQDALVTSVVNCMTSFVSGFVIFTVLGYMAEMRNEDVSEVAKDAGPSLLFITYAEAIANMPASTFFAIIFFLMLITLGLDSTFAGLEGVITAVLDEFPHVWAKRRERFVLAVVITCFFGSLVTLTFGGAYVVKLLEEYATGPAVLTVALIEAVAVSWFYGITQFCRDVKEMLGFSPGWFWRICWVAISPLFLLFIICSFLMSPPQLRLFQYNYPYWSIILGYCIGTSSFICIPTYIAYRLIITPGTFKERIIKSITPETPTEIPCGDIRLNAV
Chain of hNET (P23975 whole entry): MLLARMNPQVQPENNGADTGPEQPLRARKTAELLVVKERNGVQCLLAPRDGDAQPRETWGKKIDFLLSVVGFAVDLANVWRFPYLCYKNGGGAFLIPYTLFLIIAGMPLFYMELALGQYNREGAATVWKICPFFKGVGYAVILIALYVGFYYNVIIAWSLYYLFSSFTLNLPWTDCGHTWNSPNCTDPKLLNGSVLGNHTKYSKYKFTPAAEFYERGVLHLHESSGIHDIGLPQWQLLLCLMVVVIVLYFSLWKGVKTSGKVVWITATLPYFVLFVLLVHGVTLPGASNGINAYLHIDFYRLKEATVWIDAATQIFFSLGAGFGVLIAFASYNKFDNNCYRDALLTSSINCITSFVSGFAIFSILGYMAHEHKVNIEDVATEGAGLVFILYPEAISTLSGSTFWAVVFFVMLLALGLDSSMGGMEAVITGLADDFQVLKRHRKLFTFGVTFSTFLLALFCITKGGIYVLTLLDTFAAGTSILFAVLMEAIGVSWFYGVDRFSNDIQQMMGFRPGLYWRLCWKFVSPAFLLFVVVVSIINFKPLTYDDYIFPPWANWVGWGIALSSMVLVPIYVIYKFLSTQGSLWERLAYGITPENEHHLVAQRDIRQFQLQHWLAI

Row | Compound | % Occupancy SERT (SERT; 3 mg/kg) [%] | IC50 (hSERT) [nM] | IC50 (hNET) [nM] | % Occupancy NET (NET; 3 mg/kg) [%] | % Occupancy DAT (DAT; 3 mg/kg) [%] | IC50 (hDAT) [nM] | % Occupancy SERT (SERT; 1 mg/kg) [%] | % Occupancy NET (NET; 1 mg/kg) [%] | % Occupancy DAT (DAT; 1 mg/kg) [%]
1 | FC(F)(F)c1ccc(Oc2ccc3c(c2)CN2CCC3(c3ccc(Cl)cc3)CC2)nn1 [Example 32, 5-(4-chlorophenyl)-2,5-ethano-8-(6-(trifluoromethyl)pyridazin-3-yloxy)-2,3,4,5-tetrahydro-1H-benzo[c]azepine] | 74 | 4.3 | 124 | 0 | 42 | 36.5 |  |  | 
2 | Nc1cnc(-c2ccc3c(c2)CN2CCC3(c3ccc(Cl)c(Cl)c3)CC2)cn1 [Example 42, 5-(5-(3,4-dichlorophenyl)-2,5-ethano-2,3,4,5-tetrahydro-1H-benzo[c]azepin-8-yl)pyrazin-2-amine] | 82 | 5.9 | 155 | 39 | 54 | 9.2 |  |  | 
3 | FC(F)(F)c1ccc(Oc2ccc3c(c2)CN2CCC3(c3ccc(Cl)c(Cl)c3)CC2)nn1 [Example 45, 5-(3,4-dichlorophenyl)-2,5-ethano-8-(6-(trifluoromethyl)pyridazin-3-yloxy)-2,3,4,5-tetrahydro-1H-benzo[c]azepine] |  | 4.8 | 35.1 |  |  | 0.7 | 46 | 0 | 17
4 | Nc1cnc(-c2ccc3c(c2)CN2CCC3(c3ccc(Cl)cc3)CC2)cn1 [Example 18, 5-(5-(4-chlorophenyl)-2,5-ethano-2,3,4,5-tetrahydro-1H-benzo[c]azepin-8-yl)pyrazin-2-amine] | 89 | 3.5 | 925 | 6 | 15 | 47.6 |  |  | 
5 | O=C1NC2C=CC(c3ccc4c(c3)CN3CCC4(c4ccc(Cl)cc4)CC3)=CC2O1 (centres unmarked) [Example 22, 6-(5-(4-chlorophenyl)-2,5-ethano-2,3,4,5-tetrahydro-1H-benzo[c]azepin-8-yl)-3,3a-dihydrobenzo[d]oxazol-2(7aH)-one] | 60 | 3.4 | 806 | 0 | 5 | 58.6 |  |  | 
6 | FC(F)Oc1ccc(-c2ccc3c(c2)CN2CCC3(c3ccc(Cl)c(Cl)c3)CC2)nn1 [Example 39, 5-(3,4-dichlorophenyl)-8-(6-(difluoromethoxy)pyridazin-3-yl)-2,5-ethano-2,3,4,5-tetrahydro-1H-benzo[c]azepine] | 59 | 3.8 | 53.5 | 41 |  | 26.1 |  |  | 
7 | Oc1ccc(-c2ccc3c(c2)CN2CCC3(c3ccc(Cl)cc3)C2)nn1 (single isomer, unassigned) [7(−), 6-(5-(4-chlorophenyl)-2,5-methano-2,3,4,5-tetrahydro-1H-benzo[c]azepin-8-yl)pyridazin-3-ol] |  | 6.4 | 103 |  |  | 16.6 | 70 | 46 | 1
8 | FC(F)Oc1ccc(-c2ccc3c(c2)CN2CCC3(c3ccc(Cl)cc3)C2)nn1 (single isomer, unassigned) [6(−), 5-(4-chlorophenyl)-8(6-(difluoromethoxy)pyridazin-3-yl)-2,5-methano-2,3,4,5-tetrahydro-1H-benzo[c]azepine] | 59 | 5.9 | 275 | 0 | 12 | 87.2 |  |  | 
9 | FC(F)Oc1ccc(-c2ccc3c(c2)CN2CCC3(c3ccc(Cl)cc3)CC2)nn1 [Example 14, 5-(4-chlorophenyl)-8-(6-(difluoromethoxy)pyridazin-3-yl)-2,5-ethano-2,3,4,5-tetrahydro-1H-2-benzo[c]azepine] | 79 | 1.1 | 264 | 0 | 12 | 57.3 |  |  | 
10 | Fc1cc(C23CCN(CC2)Cc2cc(Oc4ccc(C(F)(F)F)nn4)ccc23)ccc1Cl [Example 48, 5-(4-chloro-3-fluorophenyl)-2,5-ethano-8-(6-(trifluoromethyl)pyridazin-3-yloxy)-2,3,4,5-tetrahydro-1H-benzo[c]azepine] |  | 7.2 | 134 |  |  | 10.1 | 21 | 0 | 12
11 | Clc1ccc(C23CCN(CC2)Cc2cc(-c4cnccn4)ccc23)cc1 [Example 17, 5-(4-chlorophenyl)-2,5-ethano-8-(pyrazin-2-yl)-2,3,4,5-tetrahydro-1H-benzo[c]azepine] |  | 5.3 | 2300 |  |  | 83.5 | 77 | 12 | 0
12 | CS(=O)(=O)c1ccc(-c2ccc3c(c2)CN2CCC3(c3ccc(Cl)cc3)CC2)cc1 [Example 26, 5-(4-chlorophenyl)-2,5-ethano-8-(4-(methylsulfonyl)phenyl)-2,3,4,5-tetrahydro-1H-benzo[c]azepine] |  | 7.2 | 432 |  |  | 63 | 14 | 0 | 3
13 | Fc1ccc(C23CCN(CC2)Cc2cc(Oc4ccc(C(F)(F)F)nn4)ccc23)cc1Cl [Example 47, 5-(3-chloro-4-fluorophenyl)-2,5-ethano-8-(6-(trifluoromethyl)pyridazin-3-yloxy)-2,3,4,5-tetrahydro-1H-benzo[c]azepine] |  | 6.4 | 112 |  |  | 9 | 34 | 0 | 17
